Results: PMC10667816, “A Cell‐Penetrant Peptide Disrupting the Transcription Factor CP2c Complexes Induces Cancer‐Specific Synthetic Lethality” (Advanced Science, 2023)
Where a SMILES comes first, the peptide text is derived from it.

Legend:
[1] = system: α‐globin mRNA expression in iMEL cells; test: Transcription inhibition of α‐globin mRNA expression; assay type: cell-based, murine; conditions: α‐globin (Hba-a2) mRNA, 36 h after ACP52C treatment, two independent biological replicates, read-out: TI50 (the source's name)
Description: To quantify mRNA expression of the gene of interest, cells were harvested, and total cellular RNA was extracted using Qiazol reagent (Qiagen, 79306). Purified RNA was dissolved in Diethyl pyrocarbonate (DEPC) water. Reverse transcription was performed using a High‐Capacity cDNA reverse transcription kit (Toyobo, FSQ‐201) in the presence of 400 ng of total RNA and 10 pmol random hexamer. PCR was performed using rTaq Plus 5X PCR master mix (Elpis‐Biotech, EBT‐1319) and the SYBR green Master Mix Kit. Amplifications were performed using a Light cycler 1.5 real‐time PCR system.^[ [43] ^] The relative mRNA expression levels were determined using the 2(−ΔCt) method, with GAPDH transcript levels serving as an internal control. Errors were calculated from at least two independent experiments. Oligonucleotide primers used in RT–qPCR are listed in Table S2 (Supporting Information).
Figure S13. The relationship between ACP52C-mediated growth inhibition and transcriptional
cell differentiation in vitro.
at 36 h after ACP52C treatment of various doses.
biological replicates. […] C)
expression in uMEL and iMEL c ells. D-G) Anticancer activity of ACP52C correlates with cellular
Modulation of GI50 values in cancer cells by
ACP52C treatment. […] Duplicated data
are expressed as means ± SD.

[2] = system: over 450 human kinases or disease‐relevant mutant variants; test: KINOMEscan screening; assay type: binding

CC(=O)N[C@@H](CC(N)=O)C(=O)N[C@@H](Cc1ccc(O)cc1)C(=O)N1CCC[C@H]1C(=O)N[C@@H](CCC(N)=O)C(=O)N[C@@H](CCCNC(=N)N)C(=O)N1CCC[C@H]1C(=O)N[C@@H](CS)C(=O)N[C@@H](CCCNC(=N)N)C(=O)NCC(=O)N[C@@H](CC(=O)O)C(=O)N[C@@H](CCCCN)C(=O)NCC(=O)N1CCC[C@H]1C(=O)N[C@@H](CC(=O)O)C(=O)N[C@@H](CS)C(N)=O [ACP52C] (Ac-NYPQRPCRGDKGPDC-NH2)
IC50 [1]: ~15 µM | interactions with kinases [2]: did not exhibit interactions
